# pEC50: −log10 of the molar value. Like-named read-outs stand apart in the source and are kept apart here.
# Tests used:
# KKAY mice = test: Hypoglycemic and hypolipidemic actions in mice (Test Example 1); assay type: in vivo; conditions: Mus musculus, po, 96 h, four days; for inhibition in vivo at 0.005 %: 0.005% in powdery diet; for inhibition in vivo at 0.01 %: 0.01% in powdery diet
# Excerpt: Test compounds were mixed in a powdery diet (CE-2, Japan Clea) at the concentration of 0.01% (compounds of Examples 7, 26, 29, 32) or 0.005% (compounds of Examples 1, 11, 15, 18, 24, 36, 37, 41, 48, 50, 51, 52, 58, 62, 79, 83, 88, 90, 91, 92, 93, 97, 107, 110, 115, 119, 122, 125, 129 and 130), and freely given to KKAY mice (11 to 12 weeks old, 5 mice in a group), a model of type 2 diabetes mellitus, for four days. During this period, water was given freely. Blood was sampled from orbital venous plexus, and glucose and triglyceride levels in plasma separated from blood were determined enzymatically using L type Wako Glu2 (Wako Pure Chemical Industries, Ltd.) or L type Wako TG.H (Wako Pure Chemical Industries, Ltd.), respectively.
# In the Table, “hypoglycemic action (%)” means a percent reduction (%) of the glucose level in the test compound administration group when that of the test compound non-administration group is taken as 100%. In addition, the “hypolipidemic action (%)” means a percent reduction (%) of the triglyceride level in the test compound administration group when that of the test compound non-administration group is taken as 100%.
# PPARγ-RXRα heterodimer = target: T1, PPARγ-RXRα heterodimer (Homo sapiens, UniProt P37231); test: PPARγ-RXRα heterodimer ligand activity, luciferase reporter in PPARγ:RXRα:4ERPP/CHO-K1 cells (Test Example 3); assay type: cell-based; conditions: concentration for 50% of the maximum fold induction of luciferase activity; 48 hours, CHO-K1 cells
# T1 construct: expressed in transfected cells; host or cells: CHO-K1
# T1 sequence (P37231 1-477 isoform P37231-2): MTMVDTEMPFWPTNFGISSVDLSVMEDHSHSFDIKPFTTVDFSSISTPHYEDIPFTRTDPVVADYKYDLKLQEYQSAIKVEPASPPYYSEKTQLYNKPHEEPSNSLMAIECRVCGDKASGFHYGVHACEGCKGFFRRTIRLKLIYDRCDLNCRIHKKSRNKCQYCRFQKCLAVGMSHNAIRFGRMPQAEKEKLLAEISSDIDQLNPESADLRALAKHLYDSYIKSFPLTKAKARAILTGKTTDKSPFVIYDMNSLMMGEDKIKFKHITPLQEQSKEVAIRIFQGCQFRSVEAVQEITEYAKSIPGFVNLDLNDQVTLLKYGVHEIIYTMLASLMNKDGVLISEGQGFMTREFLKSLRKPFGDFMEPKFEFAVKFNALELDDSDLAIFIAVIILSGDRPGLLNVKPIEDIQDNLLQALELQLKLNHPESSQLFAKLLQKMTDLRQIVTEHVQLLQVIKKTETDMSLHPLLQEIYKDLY
# T1 sequence (P19793 1-462 partner): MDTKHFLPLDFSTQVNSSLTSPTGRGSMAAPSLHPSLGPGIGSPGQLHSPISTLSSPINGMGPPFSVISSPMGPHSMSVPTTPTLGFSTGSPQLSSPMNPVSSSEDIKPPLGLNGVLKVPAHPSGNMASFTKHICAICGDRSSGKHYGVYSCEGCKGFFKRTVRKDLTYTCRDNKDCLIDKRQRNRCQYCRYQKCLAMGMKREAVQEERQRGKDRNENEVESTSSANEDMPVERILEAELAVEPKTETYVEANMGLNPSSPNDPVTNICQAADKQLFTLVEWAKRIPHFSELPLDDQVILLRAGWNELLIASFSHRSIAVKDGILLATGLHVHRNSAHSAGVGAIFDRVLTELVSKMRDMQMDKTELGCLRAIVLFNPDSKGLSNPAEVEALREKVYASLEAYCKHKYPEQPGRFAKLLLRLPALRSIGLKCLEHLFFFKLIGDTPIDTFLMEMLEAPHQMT
# Description: A PPARγ:RXRα:4ERPP/CHO-K1 cells obtained in Reference Example 5 described later were cultured in HAM F12 medium (produced by NISSUI SEIYAKU) containing 10% Fetal bovine serum (produced by Life Technologies, Inc., USA) and then inoculated to a 96-well white plate (produced by Corning Costar Corporation, USA) at the density of 2×10^4 cells/well, and cultured in a CO2 gas incubator at 37° C. overnight.
# After washing the 96 well white plate with PBS (Phosphate-buffered saline), 90 μl of HAM F12 medium containing 0.1% fatty acid-free bovine serum albumin (BSA) and 10 μl of test compound were added, which was cultured in a CO2 gas incubator at 37° C. for 48 hours. After removing the medium, 40 μl of PIKKAGENE 7.5 (produced by Wako Pure Chemical Industries, Ltd.) was added. After stirring, the luciferase activity was determined using Lumistar (produced by BMG Labtechnologies GmbH, Germany).
# A fold induction was calculated based on the luciferase activity of each test compound by taking the luciferase activity in the test compound non administration group as 1. The values of the test compound, concentration and the fold induction were analyzed using PRISM 2.01 (produced by GraphPad Software Inc. USA) to calculate the EC50 values, the effective concentration of a test compound for 50% of the maximum fold induction.
# After a CHO-K1 cell cultured in a 750 ml tissue culture flask (produced by Corning-Costar Corporation, USA) containing HAM F12 medium (produced by NISSUI SEIYAKU) supplemented with 10% Fetal Bovine Serum (produced by Life Technologies, Inc., USA) was scraped by treating with 0.5 g/L trypsin-0.2 g/L EDTA (ethylenediaminetetraacetic acid) (produced by Life Technologies, Inc., USA), the cell was washed with PBS (phosphate buffered saline) (produced by Life Technologies, Inc., USA), centrifuged (1000 rpm, 5 minutes), and then suspended in PBS. Subsequently, a DNA was introduced into the cell under the condition shown below using GENE PULSER (produced by Bio-Rad Laboratories, USA).
# Namely, to a cuvette having a 0.4 cm gap, added were 8×10^6 cells and 10 μg of plasmid pVgRXR2-hPPARγ obtained in Reference Example 3 and 10 μg of reporter plasmid pGL3-4ERPP-TK neo obtained in Reference Example 4, which was subjected to electroporation at the voltage of 0.25 kV under the capacitance of 960 μF. Subsequently, the cell was transferred into a HAM F12 medium containing 10% Fetal Bovine. Serum and cultured for 24 hours. Then the cell was scraped again and centrifuged, and then suspended in HAM F12 medium containing 10% Fetal Bovine Serum supplemented with 500 μg/ml of GENETICIN (produced by Life Technologies, Inc., USA) and 250 μg/ml of ZEOCIN (produced by Invitrogen, USA). The suspension was diluted to the density of 10^4 cells/ml, and inoculated to a 96-well plate (produced by Corning Costar Corporation, USA), which was cultured in a CO2 gas incubator at 37° C., whereby obtaining a GENETICIN- and ZEOCIN-resistant transformant.
# Subsequently, after the transformant cell line thus obtained was cultured in a 24-well plate (produced by Corning Costar Corporation, USA), selected was a cell line, PPARγ:RXRα:4ERPP/CHO-K1 cell, in which the luciferase was expressed and induced by addition of 10 μM pioglitazone hydrochloride.
# [1] = percent reduction of plasma glucose level vs non-administration group, read-out: hypoglycemic action (%)
# [2] = percent reduction of plasma triglyceride level vs non-administration group, read-out: hypolipidemic action (%)
Compound,pEC50 (PPARγ-RXRα heterodimer),inhibition in vivo at 0.005 % (KKAY mice; [1]) [%],inhibition in vivo at 0.005 % (KKAY mice; [2]) [%],inhibition in vivo at 0.01 % (KKAY mice; [1]) [%],inhibition in vivo at 0.01 % (KKAY mice; [2]) [%]
"Cc1oc(-c2ccccc2)nc1CCOc1ccc(COc2ccccc2CC(=O)O)cc1 [Example 58, 2-[2-[4-[2-(5-methyl-2-phenyl-4-oxazolyl)ethoxy]benzyloxy]phenyl]acetic acid]",6.92,57,75,–,–
"Cc1oc(-c2ccccc2)nc1COc1ccc(COc2ncccc2CC(=O)O)cc1 [Example 36, 2-[2-[4-[(5-methyl-2-phenyl-4-oxazolyl)methoxy]benzyloxy]-3-pyridyl]acetic acid]",7.48,55,71,–,–
"O=C(O)Cc1ccccc1OCc1ccc(OCc2csc(-c3ccccc3)n2)cc1 [Example 51, 2-[2-[4-[(2-phenyl-4-thiazolyl)methoxy]benzyloxy]phenyl]acetic acid]",5.92,55,79,–,–
"Cc1oc(-c2ccccc2)nc1COc1ccc(COc2ccc(Cl)cc2CC(=O)O)cc1 [Example 18, 2-[5-chloro-2-[4-[(5-methyl-2-phenyl-4-oxazolyl)methoxy]benzyloxy]phenyl]acetic acid]",5.54,41,34,–,–
"Cc1oc(-c2ccccc2)nc1COc1ccc(COc2cccnc2CC(=O)O)cc1 [Example 37, 2-[3-[4-[(5-methyl-2-phenyl-4-oxazolyl)methoxy]benzyloxy]-2-pyridyl]acetic acid]",6.21,50,61,–,–
"COc1ccc(OCc2ccc(OCc3nc(-c4ccccc4)oc3C)cc2)c(CC(=O)O)c1 [Example 24, 2-[5-methoxy-2-[4-[(5-methyl-2-phenyl-4-oxazolyl)methoxy]benzyloxy]phenyl]acetic acid]",6.80,49,67,–,–
"Cc1oc(-c2ccccc2)nc1CCc1noc(COc2ccccc2CC(=O)O)n1 [Example 107, 2-[2-[[3-[2-(5-methyl-2-phenyl-4-oxazolyl)ethyl]-1,2,4-oxadiazol-5-yl]methoxy]phenyl]acetic acid]",7.06,40,39,–,–
"CCOc1ccc(OCc2ccc(OCc3nc(-c4ccccc4)oc3C)cc2)c(CC(=O)O)c1 [Example 26, 2-[5-ethoxy-2-[4-[(5-methyl-2-phenyl-4-oxazolyl)methoxy]benzyloxy]phenyl]acetic acid]",7.46,–,–,53,88
"Cc1ccc(OCc2ccc(OCc3nc(-c4ccccc4)oc3C)cc2)c(CC(=O)O)c1 [Example 15, 2-[5-methyl-2-[4-[(5-methyl-2-phenyl-4-oxazolyl)methoxy]benzyloxy]phenyl]acetic acid]",6.70,49,60,–,–
"Cc1ccc(CC(=O)O)c(OCc2ccc(OCc3nc(-c4ccccc4)oc3C)cc2)n1 [Example 110, 2-[6-methyl-2-[4-[(5-methyl-2-phenyl-4-oxazolyl)methoxy]benzyloxy]-3-pyridyl]acetic acid]",7.38,51,74,–,–

# Now those with a higher pEC50 (PPARγ-RXRα heterodimer), led by results:
pEC50 (PPARγ-RXRα heterodimer),Compound,inhibition in vivo at 0.005 % (KKAY mice; [1]) [%],inhibition in vivo at 0.005 % (KKAY mice; [2]) [%],inhibition in vivo at 0.01 % (KKAY mice; [1]) [%],inhibition in vivo at 0.01 % (KKAY mice; [2]) [%]
8.04,"Cc1oc(-c2ccccc2)nc1COc1cc(COc2ccccc2CC(=O)O)on1 [Example 79, 2-[2-[3-(5-methyl-2-phenyl-4-oxazolylmethoxy)-5-isoxazoly]methoxylphenyl]acetic acid]",54,96,–,–
7.74,"COc1cc(COc2ccccc2CC(=O)O)ccc1OCc1nc(-c2ccccc2)oc1C [Example 48, 2-[2-[3-methoxy-4-[(2-phenyl-5-methyl-4-oxazolyl)methoxy]benzyloxy]phenyl]acetic acid]",53,50,–,–
7.59,"Cc1oc(-c2ccccc2)nc1CCc1ccc(COc2ccccc2CC(=O)O)cc1 [Example 97, 2-[2-[4-[2-(5-methyl-2-phenyl-4-oxazolyl)ethyl]benzyloxy]phenyl]acetic acid]",34,83,–,–
7.96,"Cc1oc(-c2ccc3ccccc3c2)nc1COc1ccc(COc2ncccc2CC(=O)O)cc1 [Example 130, 2-[2-[4-[5-methyl-2-(2-naphthyl)-4-oxazolylmethoxy]benzyloxy]-3-pyridyl]acetic acid]",55,63,–,–
7.60,"CCOc1ccc(OCc2ccc(OCc3nc(-c4ccccc4)oc3C)cc2)c(CCC(=O)O)c1 [Example 29, 3-[5-ethoxy-2-[4-[(5-methyl-2-phenyl-4-oxazolyl)methoxy]benzyloxy]phenyl]propionic acid]",–,–,58,67
8.15,"Cc1oc(-c2ccccc2)nc1COc1ccc(COc2ncccc2CC(=O)O)cn1 [Example 88, 2-[2-[[6-[(5-methyl-2-phenyl-4-oxazolyl)methoxy]-3-pyridyl]methoxy]-3-pyridyl]acetic acid]",47,90,–,–

# From patent US7238716B2, “Alkanoic acid derivatives process for their production and use thereof” (Takeda Pharmaceuticals Company Limited, priority 2000, dated 2007)
